What was measured:
[1] = system: HER3-ss+4aa/Gaussia Luciferase; test: Dox-Induced Her3-ss-Gluc Assay; format: cell-based; details: 24 hr Dox induction; 293FRT/TO cells; read-out: 24 hr Dox Inducible Her3(ss + 4)Gluc 293FRT/TO: Mean IC50
Outline: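 Expression of a Gaussia luciferase reporter carrying the HER3 signal sequence plus 4 amino acids is induced by doxycycline in stably transfected Flp-In 293 T-REx cells. Compounds are added with doxycycline at 37° C., 5% CO2. Undefined stereocentres denote stereoisomer mixtures.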

[2] = Liver Microsome Stability Assay (rat); details: rat liver microsomes, with NADPH, 1.0 uM compound
Procedure: (§1) Stability of a compound was assessed in the presence of liver microsomes from various sources—mouse, rat, monkey and human liver microsomes. 1.0 uM compound, 0.4% DMSO in 0.1 M Potassium Phosphate with 1.0 mg/mL liver microsomes, were incubated at 37° C. with or without 1 mM NADPH. The samples were quenched at 0, and 30 minutes.

[3] = system: IL-2-FL/Gaussia Luciferase; test: Dox Induced IL2-FL-Gluc Assay; format: cell-based; details: for IC50: 24 hr Dox induction, 293FRT/TO cells, read-out: 24 hr Dox Inducible IL2FLGluc 293FRT/TO: Mean IC50; for 24 hr Dox Inducible IL2FLGluc 293FRT/TO: IL2/PD1: ratio of IL2FLGluc IC50 to PD1ssGluc IC50
Outline: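 Reporter is Gaussia luciferase fused to the 3′ end of full-length IL-2 (aa 1-153), expressed from a doxycycline-inducible T-REx construct in stably selected Flp-In 293 cells. Compounds were co-added with doxycycline and incubated at 37° C, 5% CO2.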

[4] = system: PD1-ss+10aa/Gaussia Luciferase; test: Dox-Induced PD1-ss-Gluc Assay; format: cell-based; details: 24 hr Dox induction; 293FRT/TO cells; read-out: 24 hr Dox Inducible PD1ssGluc 293FRT/TO: Mean IC50
Outline: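 Flp-In 293 T-REx, stable line; Tet-regulated PD1-ss+10aa fused to Gaussia luciferase; plated day prior; cpd + doxycycline in DMSO/media; 37 °C, 5% CO2.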

[5] = system: multiple myeloma cell line NCI-H929; test: H929 Cell Viability Assay; format: cell-based, human; details: Homo sapiens, NCI-H929, 48 h, NCI-H929 cells, Celltiter-Glo
Outline: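 Plate the myeloma cells in RPMI 1640 with 10% FBS, add serially diluted compound, incubate for 48 hours at 37° C, then add CellTiter-Glo and read luciferase signal.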

[6] = Liver Microsome Stability Assay (human); details: human liver microsomes, with NADPH, 1.0 uM compound
Procedure: as §1

[7] = system: multiple myeloma cell line U266B1; test: U266 Cell Viability Assay; format: cell-based, human; details: Homo sapiens, U-266, 48 h, U266B1 cells, Celltiter-Glo
Outline: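 48 h treatment, 37° C./5% CO2, RPMI 1640 + 10% FBS; viability by CellTiter-Glo luminescence.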

[8] = system: TNFα-FL/Gaussia Luciferase; test: Dox Induced TNFα-FL-Gluc Assay; format: cell-based; details: for IC50: 24 hr Dox induction, 293FRT/TO cells, read-out: 24 hr Dox Inducible TNFaFLGluc 293FRT/TO: Mean IC50; for 24 hr Dox Inducible TNFaFLGluc 293FRT/TO: TNF/PD1: ratio of TNFaFLGluc IC50 to PD1ssGluc IC50
Outline: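 Cells are seeded one day ahead, then treated with compound plus doxycycline at 37 °C, 5% CO2. The stable Flp-In 293 T-REx line expresses full-length TNFα (amino acids 1-233) with Gaussia luciferase fused to its 3′ end, inducibly via T-REx.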

[9] = Liver Microsome Stability Assay (mouse); details: mouse liver microsomes, with NADPH, 1.0 uM compound
Procedure: as §1

[10] = Liver Microsome Stability Assay (monkey); details: monkey liver microsomes, with NADPH, 1.0 uM compound
Procedure: as §1

Compound | IC50 [1] [µM] | Liver Microsome Stability (Multiple Species): Rat - % Remaining after 30 min w/NADPH [2] [%] | IC50 [3] [µM] | 24 hr Dox Inducible IL2FLGluc 293FRT/TO: IL2/PD1 [3] | IC50 [4] [µM] | EC50 [5] [µM] | Liver Microsome Stability (Multiple Species): Human - % Remaining after 30 min w/NADPH [6] [%] | EC50 [7] [µM] | IC50 [8] [µM] | 24 hr Dox Inducible TNFaFLGluc 293FRT/TO: TNF/PD1 [8] | Liver Microsome Stability (Multiple Species): Mouse - % Remaining after 30 min w/NADPH [9] [%] | Liver Microsome Stability (Multiple Species): Monkey - % Remaining after 30 min w/NADPH [10] [%]
O=C(Nc1nc(/C=C/c2cn3ccccc3n2)cs1)c1cccn1Cc1ccncc1 [Compound B50, (E)-N-(4-(2-(imidazo[1,2-a]pyridin-2-yl)vinyl)thiazol-2-yl)-1-(pyridin-4-ylmethyl)-1H-pyrrole-2-carboxamide] | 11.4 | 0.06 | > 25 | >74 | 0.339 | 18.8 | 1.21 | > 24.6 | > 25 | >73.7 | 0.94 | 0.74
Cc1nc(/C=C/c2csc(NC(=O)c3cccn3Cc3ccncc3)n2)cn1C [Compound B51, (E)-N-(4-(2-(1,2-dimethyl-1H-imidazol-4-yl)vinyl)thiazol-2-yl)-1-(pyridin-4-ylmethyl)-1H-pyrrole-2-carboxamide] | > 25 | 1.43 | > 25 | >4.6 | 5.38 | > 25 | 0.21 | > 25 | > 25 | >4.65 | 6.7 | 0.27
O=C(Nc1nc(/C=C/c2ncoc2C2CCCCC2)cs1)c1cccn1Cc1ccncc1 [Compound B52, (E)-N-(4-(2-(5-cyclohexyloxazol-4-yl)vinyl)thiazol-2-yl)-1-(pyridin-4-ylmethyl)-1H-pyrrole-2-carboxamide] | 0.735 | 4.04 | 2.1 | 82 | 0.0255 | 15.9 | 5.82 | > 25 | 4.84 | 190 | 32.1 | 10.8
O=C(Nc1nc(/C=C/c2ncoc2C2CCCCC2)cs1)c1cccn1Cc1ccnc(F)c1 [Compound B53, (E)-N-(4-(2-(5-cyclohexyloxazol-4-yl)vinyl)thiazol-2-yl)-1-((2-fluoropyridin-4-yl)methyl)-1H-pyrrole-2-carboxamide] | 0.878 | 2.11 | 1.67 | 44 | 0.0381 | 11.2 | 5.98 | > 25 | 3.84 | 101 | 14.5 | 1.39
O=C(Nc1nc(/C=C/c2cn(C3CCCCC3)cn2)cs1)c1cccn1Cc1ccncc1 [Compound B54, (E)-N-(4-(2-(1-cyclohexyl-1H-imidazol-4-yl)vinyl)thiazol-2-yl)-1-(pyridin-4-ylmethyl)-1H-pyrrole-2-carboxamide] | 2.95 | 4.57 | 5.52 | 810 | 0.00685 | 13.9 | 0.4 | > 23.6 | 9.42 | 1370 | 4.16 | 2.69
O=C(Nc1nc(/C=C/c2cn(C3CCCCC3)cn2)cs1)c1cccn1Cc1ccnc(F)c1 [Compound B55, (E)-N-(4-(2-(1-cyclohexyl-1H-imidazol-4-yl)vinyl)thiazol-2-yl)-1-((2-fluoropyridin-4-yl)methyl)-1H-pyrrole-2-carboxamide] | 1.17 | 0.3 | 2.01 | 79 | 0.0253 | > 20.8 | 0.41 | > 25 | 6.62 | 262 | 1.7 | 0.4
COCCn1cnc(/C=C/c2csc(NC(=O)c3cccn3Cc3ccncc3)n2)c1 [Compound B56, (E)-N-(4-(2-(1-(2-methoxyethyl)-1H-imidazol-4-yl)vinyl)thiazol-2-yl)-1-(pyridin-4-ylmethyl)-1H-pyrrole-2-carboxamide] | > 25 | 0.57 | > 25 | >48 | 0.52 | > 25 | 0.46 | > 25 | > 25 | >48.0 | 1.72 | 0.27
CC(C)n1cncc1/C=C/c1csc(NC(=O)c2cccn2Cc2ccncc2)n1 [Compound B57, (E)-N-(4-(2-(1-isopropyl-1H-imidazol-5-yl)vinyl)thiazol-2-yl)-1-(pyridin-4-ylmethyl)-1H-pyrrole-2-carboxamide] | > 25 | 34.4 | > 25 | >8.7 | 2.86 | 16.3 | 17.5 | > 24.2 | 16.7 | 5.83 | 17.3 | 2.84
Cc1c(/C=C/c2csc(NC(=O)c3cccn3Cc3ccncc3)n2)ncn1C(C)C [Compound B58, (E)-N-(4-(2-(1-isopropyl-5-methyl-1H-imidazol-4-yl)vinyl)thiazol-2-yl)-1-(pyridin-4-ylmethyl)-1H-pyrrole-2-carboxamide] | 12.4 | 1.67 | > 19.7 | >810 | 0.0244 | 15.4 | 0.28 | 18.4 | 2.31 | 952 | 2.14 | 5.89
Cc1cccc(/C=C/c2csc(NC(=O)c3cccn3Cc3ccnc(F)c3)n2)n1 [Compound B59, (E)-1-((2-fluoropyridin-4-yl)methyl)-N-(4-(2-(6-methylpyridin-2-yl)vinyl)thiazol-2-yl)-1H-pyrrole-2-carboxamide] | 2.1 | 0.55 | 6.09 | 13 | 0.467 | 7.91 | 0.32 | 11.9 | 13.9 | 29.7 | 0.64 | 0.17

Source: patent publication US20230286973A1, “PROTEIN SECRETION INHIBITORS” (KEZAR LIFE SCIENCES, priority 2020, published 2023)
